Columns and labels:
[1] = target: T1, hCav1.2 (L-type calcium channel, LTCC) (Homo sapiens, UniProt Q13936); assay: automated patch clamp of I Ca,L in Cav1.2-CHO cells; confirmed by conventional patch clamp with Ba2+ as charge carrier; assay type: cell-based
T1 construct: gene CACNA1C; hCav1.2/β2/α2δ1 channel stably expressed in CHO cells; with CACNB2 (β2) and CACNA2D1 (α2δ1) subunits

hERG (hKv11.1) = target: T2, hERG (hKv11.1) (Homo sapiens, UniProt Q12809); assay: automated patch clamp of I Kr in hERG-HEK293 cells; independently verified in hERG-CHO ([…] at […]); assay type: cell-based
T2 construct: gene KCNH2; human KCNH2 stably expressed in HEK293 cells
T2 sequence (Q12809 whole entry): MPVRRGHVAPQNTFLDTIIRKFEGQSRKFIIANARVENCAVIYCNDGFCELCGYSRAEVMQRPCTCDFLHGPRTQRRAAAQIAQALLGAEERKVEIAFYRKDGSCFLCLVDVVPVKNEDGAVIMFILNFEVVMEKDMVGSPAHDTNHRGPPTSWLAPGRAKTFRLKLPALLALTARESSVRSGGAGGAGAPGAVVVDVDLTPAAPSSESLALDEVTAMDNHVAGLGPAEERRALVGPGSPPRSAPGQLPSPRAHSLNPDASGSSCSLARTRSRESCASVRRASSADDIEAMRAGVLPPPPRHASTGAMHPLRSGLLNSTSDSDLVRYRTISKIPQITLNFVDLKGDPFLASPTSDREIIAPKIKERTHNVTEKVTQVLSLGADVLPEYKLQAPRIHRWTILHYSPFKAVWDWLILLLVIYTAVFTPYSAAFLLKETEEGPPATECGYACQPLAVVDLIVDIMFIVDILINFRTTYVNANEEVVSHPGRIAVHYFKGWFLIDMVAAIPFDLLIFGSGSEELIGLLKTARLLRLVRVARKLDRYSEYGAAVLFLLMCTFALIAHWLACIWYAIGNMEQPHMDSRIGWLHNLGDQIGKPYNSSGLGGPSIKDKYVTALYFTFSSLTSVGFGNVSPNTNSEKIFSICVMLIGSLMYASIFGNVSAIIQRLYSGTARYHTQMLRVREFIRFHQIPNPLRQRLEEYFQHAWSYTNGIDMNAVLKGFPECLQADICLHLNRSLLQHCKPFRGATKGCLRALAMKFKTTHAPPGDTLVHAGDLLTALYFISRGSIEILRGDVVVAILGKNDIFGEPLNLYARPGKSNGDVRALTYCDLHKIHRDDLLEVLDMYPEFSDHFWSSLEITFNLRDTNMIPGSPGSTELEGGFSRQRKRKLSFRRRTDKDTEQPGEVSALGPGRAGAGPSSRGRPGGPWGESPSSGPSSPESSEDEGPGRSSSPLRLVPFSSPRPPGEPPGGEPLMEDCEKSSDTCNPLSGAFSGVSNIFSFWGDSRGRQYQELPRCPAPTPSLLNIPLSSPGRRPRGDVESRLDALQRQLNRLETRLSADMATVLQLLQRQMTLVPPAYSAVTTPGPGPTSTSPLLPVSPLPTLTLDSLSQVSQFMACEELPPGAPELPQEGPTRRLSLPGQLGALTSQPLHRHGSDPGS

T1 sequence (Q13936 whole entry): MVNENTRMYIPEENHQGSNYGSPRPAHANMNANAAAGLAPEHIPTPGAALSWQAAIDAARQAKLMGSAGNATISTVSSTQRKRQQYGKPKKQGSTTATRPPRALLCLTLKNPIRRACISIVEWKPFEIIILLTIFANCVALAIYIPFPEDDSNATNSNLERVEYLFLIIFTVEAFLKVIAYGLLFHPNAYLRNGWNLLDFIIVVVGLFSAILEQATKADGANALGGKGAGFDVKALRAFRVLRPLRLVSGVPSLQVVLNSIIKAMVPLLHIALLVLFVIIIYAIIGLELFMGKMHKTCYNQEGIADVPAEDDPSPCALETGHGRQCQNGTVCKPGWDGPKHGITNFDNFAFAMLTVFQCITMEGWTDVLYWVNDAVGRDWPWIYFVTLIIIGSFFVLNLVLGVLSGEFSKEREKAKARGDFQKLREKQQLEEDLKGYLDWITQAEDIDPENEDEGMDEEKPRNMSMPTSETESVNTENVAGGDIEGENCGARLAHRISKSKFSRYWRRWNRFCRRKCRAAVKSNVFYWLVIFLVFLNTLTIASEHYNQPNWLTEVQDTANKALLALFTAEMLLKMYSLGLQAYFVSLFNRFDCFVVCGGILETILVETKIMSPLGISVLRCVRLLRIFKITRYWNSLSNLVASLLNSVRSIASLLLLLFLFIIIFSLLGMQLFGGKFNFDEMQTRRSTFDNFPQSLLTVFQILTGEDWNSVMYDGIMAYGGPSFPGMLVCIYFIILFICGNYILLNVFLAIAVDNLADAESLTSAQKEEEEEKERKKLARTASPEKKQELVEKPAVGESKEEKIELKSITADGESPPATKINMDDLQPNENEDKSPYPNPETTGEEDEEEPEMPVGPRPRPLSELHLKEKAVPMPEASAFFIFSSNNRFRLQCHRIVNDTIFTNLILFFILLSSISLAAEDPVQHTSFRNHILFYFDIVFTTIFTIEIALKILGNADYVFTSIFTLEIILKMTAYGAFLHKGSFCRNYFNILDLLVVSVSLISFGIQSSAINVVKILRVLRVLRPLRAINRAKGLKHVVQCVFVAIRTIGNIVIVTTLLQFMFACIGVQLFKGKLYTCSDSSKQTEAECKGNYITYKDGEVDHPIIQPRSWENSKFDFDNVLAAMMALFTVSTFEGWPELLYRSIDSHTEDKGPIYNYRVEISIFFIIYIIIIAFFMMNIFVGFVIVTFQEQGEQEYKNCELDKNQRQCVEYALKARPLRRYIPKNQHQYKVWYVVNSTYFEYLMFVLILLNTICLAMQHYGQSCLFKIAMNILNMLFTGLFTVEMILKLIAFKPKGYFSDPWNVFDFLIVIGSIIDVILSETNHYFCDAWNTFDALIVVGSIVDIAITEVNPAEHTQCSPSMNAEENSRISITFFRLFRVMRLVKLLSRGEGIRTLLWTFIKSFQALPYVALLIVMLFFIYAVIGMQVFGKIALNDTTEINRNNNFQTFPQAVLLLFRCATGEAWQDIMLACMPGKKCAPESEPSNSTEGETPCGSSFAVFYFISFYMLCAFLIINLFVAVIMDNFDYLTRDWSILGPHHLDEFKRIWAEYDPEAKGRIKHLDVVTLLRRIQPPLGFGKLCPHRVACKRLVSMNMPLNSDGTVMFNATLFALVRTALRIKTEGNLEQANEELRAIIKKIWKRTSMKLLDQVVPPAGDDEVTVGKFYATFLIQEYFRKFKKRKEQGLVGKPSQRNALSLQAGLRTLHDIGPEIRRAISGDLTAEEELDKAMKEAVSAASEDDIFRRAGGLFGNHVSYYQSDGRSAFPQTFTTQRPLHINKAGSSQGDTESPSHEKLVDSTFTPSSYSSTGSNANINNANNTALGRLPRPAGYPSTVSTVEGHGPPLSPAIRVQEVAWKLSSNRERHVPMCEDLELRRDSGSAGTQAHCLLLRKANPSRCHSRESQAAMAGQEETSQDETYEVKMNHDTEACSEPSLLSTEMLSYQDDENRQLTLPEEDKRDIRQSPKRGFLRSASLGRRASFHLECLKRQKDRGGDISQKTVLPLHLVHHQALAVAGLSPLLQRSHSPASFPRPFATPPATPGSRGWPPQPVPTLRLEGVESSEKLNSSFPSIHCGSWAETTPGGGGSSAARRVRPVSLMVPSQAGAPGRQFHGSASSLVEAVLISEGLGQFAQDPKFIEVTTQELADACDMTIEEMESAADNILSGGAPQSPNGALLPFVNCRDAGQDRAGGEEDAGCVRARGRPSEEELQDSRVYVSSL
T1 sequence (Q08289 whole entry partner): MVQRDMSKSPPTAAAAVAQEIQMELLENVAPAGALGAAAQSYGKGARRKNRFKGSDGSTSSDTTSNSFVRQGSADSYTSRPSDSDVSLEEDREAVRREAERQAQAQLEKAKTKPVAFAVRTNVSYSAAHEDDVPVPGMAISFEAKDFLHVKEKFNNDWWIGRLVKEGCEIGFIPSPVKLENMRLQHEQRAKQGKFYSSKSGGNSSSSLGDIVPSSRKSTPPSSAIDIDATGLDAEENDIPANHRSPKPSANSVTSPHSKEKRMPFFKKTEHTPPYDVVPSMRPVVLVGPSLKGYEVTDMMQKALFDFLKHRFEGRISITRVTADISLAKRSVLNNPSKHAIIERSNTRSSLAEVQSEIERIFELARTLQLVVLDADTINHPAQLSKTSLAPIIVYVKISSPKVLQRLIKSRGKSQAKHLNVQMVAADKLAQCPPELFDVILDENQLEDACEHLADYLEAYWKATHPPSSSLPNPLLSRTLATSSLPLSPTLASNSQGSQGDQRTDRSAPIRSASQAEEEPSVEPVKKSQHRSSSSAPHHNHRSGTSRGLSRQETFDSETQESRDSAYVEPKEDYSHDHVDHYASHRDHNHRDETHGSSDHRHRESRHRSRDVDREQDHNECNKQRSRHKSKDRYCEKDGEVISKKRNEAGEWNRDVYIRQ
T1 sequence (P54289 25-956 partner): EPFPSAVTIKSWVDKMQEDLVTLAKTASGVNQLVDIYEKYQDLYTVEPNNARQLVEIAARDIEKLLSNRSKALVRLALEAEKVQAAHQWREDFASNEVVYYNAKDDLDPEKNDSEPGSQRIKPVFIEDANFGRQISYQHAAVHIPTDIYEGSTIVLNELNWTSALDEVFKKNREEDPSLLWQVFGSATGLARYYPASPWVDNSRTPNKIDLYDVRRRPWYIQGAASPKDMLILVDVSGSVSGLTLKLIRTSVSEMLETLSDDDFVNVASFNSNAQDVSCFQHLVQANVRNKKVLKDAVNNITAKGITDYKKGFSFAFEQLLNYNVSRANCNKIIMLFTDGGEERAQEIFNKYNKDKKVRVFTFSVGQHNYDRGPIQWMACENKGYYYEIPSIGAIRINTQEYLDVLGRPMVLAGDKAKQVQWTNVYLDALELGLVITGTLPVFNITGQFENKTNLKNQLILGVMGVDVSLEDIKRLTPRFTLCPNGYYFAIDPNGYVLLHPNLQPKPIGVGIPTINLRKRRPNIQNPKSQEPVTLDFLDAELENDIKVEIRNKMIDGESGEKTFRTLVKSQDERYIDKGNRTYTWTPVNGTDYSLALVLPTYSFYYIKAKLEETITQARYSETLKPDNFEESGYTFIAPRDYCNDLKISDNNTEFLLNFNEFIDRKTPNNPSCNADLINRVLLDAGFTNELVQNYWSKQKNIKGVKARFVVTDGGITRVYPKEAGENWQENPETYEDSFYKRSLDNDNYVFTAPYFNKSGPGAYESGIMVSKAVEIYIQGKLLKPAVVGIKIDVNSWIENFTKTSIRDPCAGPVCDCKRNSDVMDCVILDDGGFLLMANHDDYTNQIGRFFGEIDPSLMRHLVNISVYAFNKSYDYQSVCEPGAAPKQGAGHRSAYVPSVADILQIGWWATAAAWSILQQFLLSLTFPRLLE
T1 sequence (P54289 957-1103 partner): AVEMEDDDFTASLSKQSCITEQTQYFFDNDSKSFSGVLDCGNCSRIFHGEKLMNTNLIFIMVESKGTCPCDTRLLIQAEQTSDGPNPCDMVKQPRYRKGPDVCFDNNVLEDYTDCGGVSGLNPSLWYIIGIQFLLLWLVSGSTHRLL

C[C@]12CC[C@H](O)C[C@H]1CC[C@@H]1[C@@H]2CC[C@]2(C)[C@@H](c3ccc(=O)oc3)CC[C@]12O [BF, bufalin]
IC50 [1]: 12.5 µM | IC50 (hERG (hKv11.1)): > 100 µM

Source: PMC5446409 (Scientific Reports, 2017)
